How the values were obtained:
[1] = Cytotoxicity by MTS staining in PBMCs; assay type: cell-based; details: human, peripheral blood mononuclear cells (PBMC), MTS staining, read-out: TC50
Procedure: Cytotoxicity was assessed by MTS staining. At assay end-point, PBMC were stained with the addition of […] of the soluble tetrazolium-based dye MTS to determine cell viability and quantify compound toxicity. The plates were incubated 4 to 6 hrs at 37° C. Following incubation, the activity was assessed by reading absorbance values at 490/650 nm.

HIV-1Ba-L [2] = experiment: HIV-1Ba-L replication in PBMCs (supernatant RT end-point); details: for TI (TC50/IC50): HIV-1Ba-L in PBMCs; for IC50: Human immunodeficiency virus 1, PBMC, 168 h
Procedure: Evaluation of Dihydropyrimidines vs. HIV-1Ba-L in Peripheral Blood Mononuclear Cells (PBMCs)
Cultures of pooled phytohemagglutinin stimulated peripheral blood mononuclear cells (PBMC) were seeded into a 96-well plate at plating density of 5×10^4 cells/well. Compounds were serially diluted into media in ½-log increments using a high test of […] and […] of each concentration (nine total concentrations). Cells were infected with HIV strains HIV-1Ba-L and NL4-3 at an MOI=0.1. The PBMCs were cultured for seven days in an humidified incubator maintained at 37° C., 5% CO2 atmosphere. At the assay end-point, the supernatant was collected and analyzed for reverse transcriptase activity. For the RT assay, tritiated thymidine triphosphate (3H-TTP, 80 Ci/mmol) was diluted 1:1 dH2O:Ethanol at 1 mCi/ml. Poly rA:oligo dT template:primer was prepared as a stock solution by combining 150 μl poly rA (20 mg/ml) with 0.5 mL oligo dT (20 units/ml) and 5.35 ml sterile dH2O followed by aliquoting (1.0 ml) and storage at −20° C. The RT reaction buffer contained of 125 ml 1.0 M EGTA, 125 ml dH2O, 125 ml 20% Triton X100, 50 ml 1.0 M Tris (pH 7.4), 50 ml 1.0 M DTT, and 40 ml 1.0 M MgCl2. The final reaction mixture was prepared by combining 1 part 3H-TTP, 4 parts dH2O, 2.5 parts poly rA:oligo dT stock and 2.5 parts reaction buffer. To each well, ten microliters of the reaction mixture and 15 μl of virus containing supernatant were added. The plates were incubated at 37° C. for 60 minutes. Following incubation, the reaction volume was spotted onto DE81 filter-mats, washed 5 times for 5 minutes each in a 5% sodium phosphate buffer or 2×SSC. […] were washed 2 times for 1 minute each in distilled water, 2 times for 1 minute each in 70% ethanol, and then dried. Incorporated radioactivity (counts per minute, CPM) was quantified using standard liquid scintillation techniques.

[3] = Cytotoxicity by MTS staining in uninfected MAGI-CCR5 cells; assay type: cell-based; details: human, read-out: TC50
Procedure: The anti-viral activity of dihydropyrimidines was shown by inhibition of virus replication in MAGI-CCR5 cells. MAGI-CCR5 cells are derived from HeLa-CD4-LTR-β-galactosidase cells. The cells have been engineered to express high levels of CD4 and CCR5 and contain one copy of the HIV-1 LTR promoter driving expression of the β-galactosidase gene upon HIV-1 Tat transactivation. On the day preceding the assay, the cells were plated at 1.0×10^4 cells per well and maintained at 37° C. and 5% CO2 in a humidified incubator. Total cell count and viability was visually assessed using a hemacytometer and trypan blue exclusion. Compounds were evaluated at six concentrations (triplicate wells/concentration). On the day of assay setup, compound dilutions were prepared at two-times (2×) the final concentrations. Media was decanted and wells were replenished with 50 μl of 2× compounds, followed by the addition of 50 μl of diluted virus. Identical uninfected assays were prepared for parallel cytotoxicity testing.

HIV-1Ba-L [4] = experiment: Inhibition of virus replication in MAGI-CCR5 cells (β-galactosidase reporter); assay type: cell-based; details: HIV-1Ba-L in MAGI-CCR5 cells; for IC50: Human immunodeficiency virus 1, 48 hours, β-galactosidase reporter expression, read-out: IC50
Procedure: The anti-viral activity of dihydropyrimidines was shown by inhibition of virus replication in MAGI-CCR5 cells. MAGI-CCR5 cells are derived from HeLa-CD4-LTR-β-galactosidase cells. The cells have been engineered to express high levels of CD4 and CCR5 and contain one copy of the HIV-1 LTR promoter driving expression of the β-galactosidase gene upon HIV-1 Tat transactivation. On the day preceding the assay, the cells were plated at 1.0×10^4 cells per well and maintained at 37° C. and 5% CO2 in a humidified incubator. Total cell count and viability was visually assessed using a hemacytometer and trypan blue exclusion.
Compounds were evaluated at six concentrations (triplicate wells/concentration). On the day of assay setup, compound dilutions were prepared at two-times (2×) the final concentrations. Media was decanted and wells were replenished with 50 μl of 2× compounds, followed by the addition of 50 μl of diluted virus. Identical uninfected assays were prepared for parallel cytotoxicity testing.
Evaluation of Dihydropyrimidines vs. HIV-1Ba-L in MAGI-CCR5 Cells

Row | Compound | CC50 at 7 days [1] [µM] | TI (TC50/IC50) (HIV-1Ba-L [2]) | IC50 (HIV-1Ba-L [2]) [µM] | CC50 at 48 h [3] [µM] | TI (TC50/IC50) (HIV-1Ba-L [4]) | IC50 (HIV-1Ba-L [4]) [µM]
1 | CC1=C(c2nc(-c3ccc(C#N)cc3)cs2)C(c2ccc(Oc3ccccc3)nc2)NC(=O)N1 (stereo not shown) [Example 90] | 50 to 100 | C (C < 50.0-10.0) | 1 to 5 | ≥ 100 | A (A = TI (TC50/IC50) ≧ 100.0) | < 1
2 | CC1=C(c2nc(-c3ccc(C#N)cc3)cs2)C(c2cccc(F)c2)NC(=O)N1 (stereo not shown) [Example 50] | ≥ 100 | A (A = TI (TC50/IC50) ≧100.0) | < 1 | ≥ 100 | C (C < 50.0 to 10.0) | 1 to 5
3 | COc1cccc(C2NC(=O)NC(C)=C2c2nc(-c3ccc(C#N)cc3)cs2)n1 (stereo not shown) [Example 28] | ≥ 100 | B (B < 100.0-50.0) | 1 to 5 | ≥ 100 | B (B < 100.0-50.0) | 1 to 5
4 | CC1=C(c2nc(-c3ccc(C#N)cc3)cs2)C(c2ccc(OCc3ccccc3)c(Cl)c2)NC(=O)N1 (stereo not shown) [Example 81] | ≥ 100 | A (A = TI (TC50/IC50) ≧100.0) | < 1 | ≥ 100 | B (B < 100.0-50.0) | 1 to 5
5 | CC1=C(c2nc(-c3ccc(C#N)cc3)cs2)C(c2ccc(Cl)nc2)NC(=O)N1 (stereo not shown) [Example 3] | ≥ 100 | A (A = TI (TC50/IC50) ≧100.0) | < 1 | ≥ 100 | A (A = TI (TC50/IC50) ≧ 100.0) | 1 to 5
6 | COc1ccc(-c2csc(C3=C(C)NC(=O)NC3c3cc(Br)cs3)n2)cc1 (stereo not shown) [Example 40] | ≥ 100 | D (D < 10.0) | 5 to 100 | ≥ 100 | D (D < 10.0) | > 100
7 | CC1=C(c2nc(-c3ccc(C#N)cc3)cs2)C(c2ccc(Cl)nc2Cl)NC(=O)N1 (stereo not shown) [Example 92] | 50 to 100 | C (C < 50.0-10.0) | 1 to 5 | ≥ 100 | A (A = TI (TC50/IC50) ≧ 100.0) | < 1
8 | CC1=C(c2nc(-c3ccc4ccccc4c3)cs2)C(c2cccc(O)c2)NC(=O)N1 (stereo not shown) [Example 36] | < 50 | D (D < 10.0) | 5 to 100 | 50 to 100 | D (D < 10.0) | 5 to 100
9 | CC1=C(c2nc(-c3ccc(C#N)cc3)cs2)C(c2ccc(N(C)C)nc2)NC(=O)N1 (stereo not shown) [Example 91] | ≥ 100 | B (B < 100.0-50.0) | 1 to 5 | ≥ 100 | A (A = TI (TC50/IC50) ≧ 100.0) | < 1
10 | CC1=C(c2nc(-c3ccc(C#N)cc3)cs2)C(c2ccc3cccc(O)c3n2)NC(=O)N1 (stereo not shown) [Example 23] | ≥ 100 | A (A = TI (TC50/IC50) ≧100.0) | < 1 | 50 to 100 | A (A = TI (TC50/IC50) ≧ 100.0) | < 1
11 | COc1cncc(C2NC(=O)NC(C)=C2c2nc(-c3ccc(C#N)cc3)cs2)c1 (stereo not shown) [Example 26] | ≥ 100 | C (C < 50.0-10.0) | 1 to 5 | ≥ 100 | D (D < 10.0) | 5 to 100
12 | c1cc(CN2CCCNCCNCCCNCC2)ccc1CN1CCCNCCNCCCNCC1 [AMD 3100, reference compound] | > 10 |  | > 10 | > 10 |  | > 10
13 | CC1=C(c2nc(-c3ccc(C#N)cc3)cs2)C(c2ccc(O)cc2)NC(=O)N1 (stereo not shown) [Example 48] | ≥ 100 | A (A = TI (TC50/IC50) ≧100.0) | < 1 | ≥ 100 | A (A = TI (TC50/IC50) ≧ 100.0) | < 1
14 | CC1=C(c2nc(-c3ccc(C#N)cc3)cs2)C(c2cc(O)cc(O)c2)NC(=O)N1 (stereo not shown) [Example 80] | ≥ 100 | B (B < 100.0-50.0) | 1 to 5 | ≥ 100 | D (D < 10.0) | > 100
15 | CC1=C(c2nc(-c3ccccc3)cs2)C(c2cccc(O)c2)NC(=O)N1 (stereo not shown) [Example 33] | 50 to 100 | D (D < 10.0) | 5 to 100 | ≥ 100 | D (D < 10.0) | 5 to 100
16 | CC1=C(c2nc(-c3ccc(Cl)cc3)cs2)C(c2cccc(O)c2)NC(=O)N1 (stereo not shown) [Example 74] | 50 to 100 | C (C < 50.0-10.0) | 1 to 5 | 50 to 100 | C (C < 50.0 to 10.0) | 1 to 5
17 | CC1=C(c2nc(-c3ccc(C#N)cc3)cs2)C(c2cccnc2F)NC(=O)N1 (stereo not shown) [Example 29] | ≥ 100 | A (A = TI (TC50/IC50) ≧100.0) | < 1 | ≥ 100 | A (A = TI (TC50/IC50) ≧ 100.0) | < 1
18 | CC1=C(c2nc(-c3ccc(F)cc3)cs2)C(c2cccc(O)c2)NC(=O)N1 (stereo not shown) [Example 44] | 50 to 100 | D (D < 10.0) | 5 to 100 | 50 to 100 | C (C < 50.0 to 10.0) | 1 to 5
19 | CC1=C(c2nc(-c3ccc(C#N)cc3)cs2)C(c2cccc(O)c2)NC(=O)N1C (stereo not shown) [Example 69] | ≥ 100 | C (C < 50.0-10.0) | 1 to 5 | ≥ 100 | B (B < 100.0-50.0) | 1 to 5
